Assays:
T98G cells [1] = test: Liquid colony formation assay (4 weeks); type: cell-based; settings: 10 µM
Protocol: (§1) Cells were seeded into 6-well culture plates (Falcon) at a concentration of 50 cells/well in 1 mL DMEM high glucose with pyruvate (Gibco), 10% FBS, and 1% Pen/Strep. Treatments were added to each well to obtain a pre-determined final concentration in 2 mL/well total volume. Plates were incubated for 4 weeks undisturbed, and only carefully received a media change at week 3 with or without drug treatments if colonies were not visible. Following completion of the 4-week incubation period, colonies were stained as previously described. […] Stained colonies were counted, with the number and size documented.

U87 cells [2] = test: Liquid colony formation assay (4 weeks); type: cell-based; settings: 10 µM
Protocol: as §1

T98G cells [3] = test: Glucose quantification in medium; type: cell-based; settings: 10 µM, 48 and 72 hours
Protocol: Glucose was measured per instructions from a kit manufactured by Sigma-Aldrich. Briefly, 200,000 U87 and T98G cells were seeded into a 6-well plate and incubated overnight. […] After designated times, medium was removed, diluted 1:100 in glucose assay buffer (glucose oxidase, horseradish peroxidase, and O-dianisidine), then added to a 96-well plate at a 1:3 dilution in glucose assay buffer. The plate was then incubated at 37°C and 5% CO2 for 30 minutes, and the reactions halted by the addition of 66 uL of 12 N sulfuric acid. Absorbance values were evaluated at 540 nm on a Biotek Synergy 2 plate reader.

T98G cells [4] = test: Cellular bioenergetics analysis (Seahorse XF24 oxygen consumption); type: cell-based
Protocol: (§2) Assay was performed according to manufacturer’s directions and as previously described, where U87 and T98G cells were plated at 30,000 cells/well in an XF24 plate and allowed to attach overnight. Media was replaced an hour before onset of the assay with XF24 media, and then, rotenone/antimycin A mix, FCCP, and oligomycin were diluted in XF24 media and loaded into the provided cartridge to obtain final concentrations of 100 nM, 300 nM, and 1 µg/mL, respectively. […] Addition of the compounds into the medium took place at designated time points, and oxygen consumption was examined using a Seahorse Bioscience XF24 Extracellular Flux Analyzer.

U87 cells [5] = test: as above; type: cell-based
Protocol: as §2

[6] = In vivo bio-distribution (LC-MS/MS, noncompartmental PK); parameters: species or system mice (CD-1); settings: female, mouse; CD-1 mice, single IV dose 8 mg/kg, plasma
Protocol: Female mice (CD-1 background, 5–6 weeks old) were used for all bio-distribution studies. […] Plasma was processed from whole blood by centrifugation of EDTA-treated blood for 10 minutes at 9,600g, then stored at −80°C until analyzed. In addition, kidneys, spleen, lung, liver, and brain were removed, weighed; flash frozen, then homogenized in a 3-fold volume of PBS for further analysis and stored at −80°C. […] Next, 100 µL of each sample (plasma or tissue homogenate) was crashed with 200 µL methanol+0.1% formic acid+50 ng/mL (final concentration) n-benzyl benzamide internal standard, vortexed for 15 seconds, incubated at room temperature for 10 minutes, then centrifuged at 16,000g for 5 minutes at 4°C. 250 µL of supernatant was then transferred to an Eppendorf tube, centrifuged as previously described, then 195 µL of supernatant transferred to an HPLC vial with insert for analysis by HPLC-MS/MS (AB Sciex 3200 QTrap). […] The limit of detection (LOD) was set at the standard concentration providing an analyte signal three-fold above blank matrix. […] Per UTSW’s lab SOPs, samples falling below LOQ and above LOD are assigned a value of ½LOQ. Samples falling below LOQ and LOD are assigned a value of 0.

U87 cells [7] = test: ATP quantification (luciferase luminescence); type: cell-based; settings: 10 µM, 24 hours
Protocol: U87 and T98G cells were seeded into 6-well plates at 200,000 cells/well in 1 mL DMEM high glucose with pyruvate (10% FBS and 1% Pen/Strep) and allowed to grow overnight. […] Following a modified protocol outlined in an ATP kit obtained from Life Technologies, cells were washed twice with PBS, then lysed with 150 uL of ATP assay buffer (500 mM Tricine buffer, pH 7.8, 100 mM MgSO4, 2 mM EDTA, and 2 mM sodium azide) containing 1% Triton X-100, dislodged by scraping with a pipette tip, and transferred to 1.5 mL Eppendorf tubes on ice for 5 minutes. 10 uL of cell lysate was then added in triplicate to a white 96-well plate, also containing ATP standards. Before reading the plate, 100 uL of ATP assay buffer containing 90 µg/mL D-luciferin, 20 µM DTT, and 25 µg/mL Luciferase) was added to each well. Luminescence was calculated using a Tecan Infinite F200 plate reader. Protein concentration was also determined using the Pierce 660 nm Protein Assay (660 nm absorbance), with ATP production standardized to protein values.

T98G cells [8] = test: Cell viability (calcein AM); type: cell-based; settings: 10 µM
Protocol: (§3) U87 and T98G cells were seeded at 750 cells/well in 100 µL DMEM high glucose with pyruvate (10% FBS and 1% Pen/Strep) in a black, 96-well flat-bottomed plate, and allowed to attached overnight. […] The next morning, the plates were washed with 200 µL/well 1X PBS, which was removed and replaced with 95 µL calcein AM reagent at 1:1000 dilution in 1X PBS.

U87 cells [9] = test: Cell viability (calcein AM); type: cell-based
Protocol: as §3

Question: For CN(C)c1ccc2nc3ccc(=[N+](C)C)cc-3sc2c1 [MB, methylene blue], which “Average colony size compared to control” value (T98G cells [1]) is on record?
Answer: significantly reduced

Question: What about the “Average number of colonies” value (T98G cells [1]) of the same molecule?
Answer: significantly reduced

Question: What about the “Average colony size compared to control” value (U87 cells [2]) of the same molecule?
Answer: significantly reduced

Question: And the “Average number of colonies” value (U87 cells [2])?
Answer: reduced

Question: And the “Sample glucose compared to untreated cells” value (T98G cells [3])?
Answer: significant increases

Question: And the “Increase in OCR” value (T98G cells [4]; 10 µM)?
Answer: 1.5 fold

Question: What about the “Oxygen consumption rate (OCR)” value (T98G cells [4]; 1 and 10 µM) of the same molecule?
Answer: significantly increased

Question: And the “Oxygen consumption rate (OCR)” value (U87 cells [5]; 10 µM)?
Answer: significant increase

Question: And the “Oxygen consumption rate (OCR)” value (U87 cells [5]; lower treatment concentration (1 µM))?
Answer: not seen

Question: And the AUC [6]?
Answer: 2130 ng·h/mL

Question: What about the “ATP levels compared to control” value (U87 cells [7]) of the same molecule?
Answer: increased

Question: What about the “Initial reduction in cell viability” value (T98G cells [8]; 24 and 72 hours) of the same molecule?
Answer: 25%

Question: What about the “Additional reduction in cell viability” value (T98G cells [8]; through […]) of the same molecule?
Answer: ~ 50%

Question: What about the “Cell viability over time course” value (U87 cells [9]; 10 µM, 24, 72 and […]) of the same molecule?
Answer: did not induce cell death until 72 and 144 hours

Question: And the Cell viability (U87 cells [9]; 10 µM, 24-hour treatment)?
Answer: increase in cell viability

Source: PMC5636194 (Journal of nanomedicine & nanotechnology, 2017)
